Data from a melting point compilation (Tetko et al.; mined from patent text by program, amines drawn as free bases though some values may be those of a salt).

`Cc1c(Cl)ccnc1C(=O)NCCNC(=O)OC(C)(C)C` gave a melting point of 134 to 135 °C.
With `CNC(=S)NCCSCc1cncs1` the melting point was 86 to 88 °C.
`CC(=O)NC1(c2ccccc2)CCN(CC[C@@H](c2ccc(Cl)c(Cl)c2)[C@@H](O)c2cnnn2-c2ccccc2)CC1` (racemic) showed a melting point of 125 to 128 °C.
For `C=C=Cc1c(C)nc2c(OCc3ccccc3C)cccn12`, the melting point was 88 to 89 °C.
Work on `CCOC(=O)c1[nH]c2ccc(Cl)cc2c1Cc1ccccc1` yielded a melting point of 196 to 197 °C.
`CC(C)Sc1nc(C(F)(F)F)c(I)c(=O)[nH]1` showed a melting point of 212 to 215 °C.
For `NC(=O)CCc1ccc(Oc2ccc3c(c2)S(=O)(=O)N=C2CCCN23)cc1`, the melting point was 178 to 183 °C.
Work on `O=C(O)Cc1cccc(-c2onc3ccccc23)c1` yielded a melting point of 143 to 145 °C.
With `CCCc1nc2ccnn2c(O)c1Cc1ccc(-c2ccccc2C(=O)O)cc1` the melting point was 230 to 240 °C.
With `CC(CCOS(N)(=O)=O)Oc1ccccc1` (centres undefined) the melting point was 76 to 77 °C.
Work on `CC1(CCC(=O)O)CCCc2c1[nH]c1ccccc21` (centres undefined) yielded a melting point of 204 to 206 °C.
Work on `COc1ccc2c(c1)c(S(=O)(=O)c1ccccc1)cn2CCCl` yielded a melting point of 148 to 150 °C.
In the case of `O=c1cc(-c2ccccc2)oc2ncc(CN3CCCC3)cc12`, the melting point is reported as 294 to 296 °C.
Compound `COc1ccc(C=O)cc1CS(=O)(=O)O` has a melting point of 54 °C.
`CC(C)Oc1n[nH]c(=O)n1C` gave a melting point of 142 °C.
For `C=C(CC(C)C(=O)O)C(=O)O` (centres undefined), the melting point was 106 to 108 °C.
Work on `O=C(c1ccccc1)N1CCCC(c2nc(-c3ccc(F)cc3)no2)C1` (centres undefined) yielded a melting point of 82 to 83 °C.
In the case of `CC(C)c1ccc(S(=O)(=O)n2c(Cc3ccc(C(=O)O)c(O)c3)cc3cc(Cl)ccc32)cc1`, the melting point is reported as 139 °C.
Compound `CS(=O)(=O)c1ccc(C(=O)O)c(F)c1F` has a melting point of 214 to 215 °C.
`CC(C)n1nc(-c2c(-c3ccccc3)nn3ccc(N4CCN(S(=O)(=O)c5ccccc5)CC4)cc23)ccc1=O` showed a melting point of 219 to 220 °C.
`O=C1c2ccccc2S(=O)(=O)N1CCCCCCOc1ccccc1` gave a melting point of 64 to 66 °C.
Compound `COc1cccc([C@H]2O[C@H](CC(=O)Nc3cccc(C(=O)O)c3C)C(=O)N(CC(C)(C)COC(C)=O)c3ccc(Cl)cc32)c1OC` has a melting point of 139 to 142 °C.
In the case of `CC1(C)C=C(n2cc(C#N)c3ccccc32)c2cc(C#N)ccc2O1`, the melting point is reported as 192 to 193 °C.
For `CC1(N2C(=O)c3ccccc3S2(=O)=O)CCCNC1=O` (centres undefined), the melting point was 211 to 215 °C.
For `COc1cc2c(cc1OC)[C@H]1CCCC[C@H]1N=C2c1ccc(C(C)=NO)cc1`, the melting point was 189 to 192 °C.
Compound `O=C(CN1CCC(Cc2ccc(F)cc2)CC1)Nc1cccc(NCc2ccccc2)c1` has a melting point of 98 to 100 °C.
Compound `O=C(Sc1ccccn1)c1ccc(I)cc1` has a melting point of 127 °C.
With `Clc1ccccc1-n1nnnc1Cl` the melting point was 101 to 103 °C.
With `Nc1nc(=O)n(C(=O)Nc2cccc(Cl)c2)cc1F` the melting point was 250 to 252 °C.
Compound `CNS(=O)(=O)CCc1ccc2[nH]cc(CCN=Cc3ccccc3)c2c1` has a melting point of 146 to 148 °C.
`ClC1c2ccccc2C=Cc2ccc(Br)cc21` (centres undefined) gave a melting point of 146 °C.
With `COc1c(CC(C(=O)O)C(=O)O)cccc1C(=O)c1ccc(Cl)cc1` the melting point was 142 °C.
With `CC(=O)C(=Cc1ccc(Cl)c(Cl)c1)C(C)=O` the melting point was 73 °C.
For `CSc1ccc2c(c1)CC(C)(C)C(=O)N2`, the melting point was 154 °C.
With `CCCCCCCCCCCCCCCCCC(=O)Oc1cccc(C(=O)OCC)c1` the melting point was 57 °C.
Work on `Nc1ccc(Sc2nnc3ccc(-c4ccc(F)cc4)cn23)cc1` yielded a melting point of 217 °C.
In the case of `N#CCCOC(=O)C=C1C=C(c2ccccc2)S(=O)(=O)C(c2ccccc2)=C1`, the melting point is reported as 156 to 157 °C.
`CC(C)(C)OC(=O)NC1CCN(Cc2ccccc2)C1` (centres undefined) showed a melting point of 114 to 115 °C.
For `COc1ccc(CC(=O)c2ccc(OC)nc2)cc1`, the melting point was 101 to 102 °C.
Work on `COc1nc(NC(=O)NS(=O)(=O)c2cccc3c2OS(=O)(=O)C(C)=C3)c(Cl)c(OC)n1` yielded a melting point of 236 to 237 °C.
Work on `CC(C)OC(=O)OC1Oc2ccc(OS(=O)(=O)N(C)C)cc2C1(C)C` (centres undefined) yielded a melting point of 95 to 96 °C.
In the case of `C=CCN(CC=C)c1nc(NC(=O)c2ccc(Cl)cc2Cl)n2oc(=O)nc2n1`, the melting point is reported as 163 to 164 °C.
`Cn1ncc2c1C(=O)Nc1cccnc1N2` showed a melting point of 304 to 305 °C.
With `Cc1cc2c3c(c1)C(c1ccccc1)C(=O)N3CC(=O)N2` (centres undefined) the melting point was 195 to 200 °C.
`CS(=O)(=O)c1ccc(-c2cnn(-c3ccc(F)c(F)c3)c(=O)c2C#Cc2ccccc2)cc1` showed a melting point of 211 to 213 °C.
`Cc1cc(=O)n(C(=O)Oc2c(C(=O)c3ccc(Cl)cc3Cl)c(C)nn2C)o1` gave a melting point of 180 to 182 °C.
With `Cc1c(Nc2c(C#N)cnc3sc(C(=O)N4CCCC4)cc23)ccc2[nH]ccc12` the melting point was 256 °C.
Work on `Nc1nc(-c2ccccc2)c(-c2ccc(=O)[nH]n2)s1` yielded a melting point of over 250 °C.
`O=C1c2c(O)cccc2C(Sc2ccccc2)c2cccc(O)c21` showed a melting point of 156 to 157 °C.
For `CC(=O)Nc1nc2n(n1)Cc1ccccc1-2`, the melting point was 258 to 259 °C.
`CN1CCCC1=C1C(=O)N(c2ccccc2)c2cc(Cl)ccc21` gave a melting point of 134 to 137 °C.
Work on `O=C1OC(=O)c2cc(N3C(=O)CCCC3=O)ccc21` yielded a melting point of 220 to 222 °C.
Work on `N#CC1(N2CCCCC2)CCCCC1` yielded a melting point of 66 to 68 °C.
With `COc1cc(-c2csc(C(=N)NO)n2)cc(Cl)c1OC` the melting point was 169 to 170 °C.
Work on `C#Cc1ccc(SC)cc1Cl` yielded a melting point of 46 to 50 °C.
For `O=[N+]([O-])c1ccc(C=Cc2nc(Cl)c3ccccc3n2)o1`, the melting point was 252 to 254 °C.
For `CCOC(=O)CC(=O)Nc1ccc(N)c([N+](=O)[O-])c1`, the melting point was 133 to 136 °C.
`CCCCCCCCCOC1C(O)C(CO)OC1n1cnc2c(=O)[nH]c(N)nc21` (centres undefined) showed a melting point of 258 to 259 °C.
In the case of `CCN1c2ncc(CCc3ccc4ccccc4c3)cc2C(=O)N(C)c2ccc(F)nc21`, the melting point is reported as 112 to 114 °C.
Work on `O=C(O)C1(C(=O)O)CC(C2CCC2)C1` yielded a melting point of 150 to 151 °C.
In the case of `O=C(O)CCC(=O)N[C@H]1C[C@H](C(=O)O)Nc2cc(Cl)cc(Cl)c21` (relative stereo), the melting point is reported as 221 to 223 °C.
In the case of `O=C(O)Cc1nc(-c2ccc(Cl)c(Cl)c2)oc1-c1ccoc1`, the melting point is reported as 222 to 223 °C.
`CCCN(C)c1ncc2cc(-c3ccc(C(=O)N4CCN(C)CC4)cc3)[nH]c2n1` showed a melting point of 222 to 224 °C.
For `OC1C=C(c2ccc(C(F)(F)F)cc2)CN(Cc2ccccc2)C1` (centres undefined), the melting point was 88 to 90 °C.
With `CCOC(=O)NC(C)CC(NC(=O)OCC)NC(=O)OCC` (centres undefined) the melting point was 103 to 105 °C.
With `Nc1ccc(OCCn2ccnc2)cc1` the melting point was 91 to 92 °C.
Compound `Cc1cc(-c2c[nH]cn2)ccc1N=CNC#N` has a melting point of 200 to 202 °C.
For `CCS(=O)(=O)c1ccc(F)c(C#Cc2cc(Cl)ccc2OCC(=O)O)c1`, the melting point was 165 to 169 °C.
With `COc1ccccc1-c1ccc2cnc(Nc3ccc(N4CCN(CC(N)=O)CC4)c(F)c3)nn12` the melting point was 186 °C.
`N#Cc1cc(=O)c2ccc(OCCCCl)cc2o1` gave a melting point of 124 to 125 °C.
Compound `Cc1ccc(S(=O)(=O)N2CC3=C(C2)C(Cc2ccccc2)NCC3)cc1` (centres undefined) has a melting point of 196 °C.
Compound `c1ccc(Oc2ccc3nnn(Cc4ccc5ncccc5c4)c3n2)cc1` has a melting point of 225 to 227 °C.
`NCC(O)c1cc(Cl)cc(Cl)c1` (centres undefined) showed a melting point of 66 °C.
In the case of `Clc1ccc2c(c1)OCc1cccnc1C2N1CCNCC1` (centres undefined), the melting point is reported as 162 to 164 °C.
With `COc1ccc(C2CC(O)CCC2[N+](=O)[O-])cc1OC` (centres undefined) the melting point was 126 to 127 °C.
Compound `CN1CCN(c2ccc(O)c3c2C[C@H](N)CC3)CC1` has a melting point of 238 to 239 °C.
For `COc1ccc2sc(SCc3c(F)c(F)c(F)c(F)c3F)nc2c1`, the melting point was 71 to 75 °C.
For `CCSc1nc(=O)n(CC(C)(C)C)c(=O)n1N`, the melting point was 202 to 204 °C.
With `CN1CCC(N(C)C(=O)CNS(=O)(=O)c2ccc(Nc3nccc(Nc4ccc(F)cc4)n3)cc2)CC1` the melting point was 233 to 234 °C.
Compound `NS(=O)(=O)c1ccccc1C(=O)OC1COC1` has a melting point of 169 to 170 °C.
`COc1nc(Cc2nn(C)c(C)c2NS(=O)(=O)C(F)(F)F)nc(OC)n1` gave a melting point of 145 °C.
`C[Si](C)(C)C=Cc1cn(C2OC(CO)C(O)C2F)c(=O)[nH]c1=O` (centres undefined) showed a melting point of 164 to 165 °C.
`C=Cn1cc(C(=O)O)c(=O)c2cnc(N3CCN(C)CC3)nc21` showed a melting point of 233 to 234 °C.
`O=[N+]([O-])c1ccc(Oc2ccc(Oc3ccc(Oc4ccc(Oc5ccc([N+](=O)[O-])cc5)cc4)cc3)cc2)cc1` gave a melting point of 142 to 143 °C.
With `CCC(CC)n1cnc2c(Oc3c(C)cc(C)cc3C)nc(C)cc21` the melting point was 127 to 131 °C.
For `CC(=O)Nc1nc(-c2cccnc2)c(-c2ccccc2)s1`, the melting point was 264 to 267 °C.
Work on `CCOC(=O)C1=C(C(F)(F)F)Nc2n[nH]cc2C1c1cccs1` (centres undefined) yielded a melting point of 157 to 161 °C.
For `CSC1C(=O)Nc2ccc(C(F)(F)F)cc21` (centres undefined), the melting point was 136 to 138 °C.
With `CCn1c([N+](=O)[O-])cnc1-c1nnc2ccc(N)nn12` the melting point was 218 to 222 °C.
Compound `CN(C)c1ccc(C(=O)OC2=C([C@H]3CC[C@H](c4ccc(Cl)cc4)CC3)C(=O)c3ccccc3C2=O)cc1` has a melting point of 117 to 121 °C.
With `O=C(OCc1ccccc1)[C@@H]1CCC(=O)N1C(=O)c1ccccc1` the melting point was 101 °C.
`Cc1nc2ccc(NCCCN3CCC(OC(c4ccccc4)c4ccccc4)CC3)nn2c1C(=O)O` gave a melting point of 101 to 103 °C.
In the case of `CCn1c(COCc2ccccc2)nc(C(C)C)c1Sc1cccc(F)c1`, the melting point is reported as 88 to 90 °C.
For `Cc1nccn1CCCNC(=O)c1cccnc1Cl`, the melting point was 126 to 128 °C.
Work on `O=Cc1ccc2c(c1)S(=O)c1ccccc1C=C2` (centres undefined) yielded a melting point of 188 to 190 °C.
Work on `CCCc1c(/C=C/c2ccccc2C)nc2ccc(C(=O)OC)cn2c1=O` yielded a melting point of 190 to 193 °C.
Compound `O=[N+]([O-])c1c(NCCO)cc(NCCO)cc1NCCO` has a melting point of 200 °C.
`O=c1c2ccccc2c2cnn(-c3ccccc3)c2n1CCCl` gave a melting point of 157 to 160 °C.
`CC(C)(C)OC(=O)NCCCn1c2c(c3ccc(NCC(=O)O)cc3c1=O)C(=O)c1ccccc1-2` gave a melting point of 190 to 192 °C.
For `COC(=O)Cc1ccccc1OCc1ccc(N(Cc2nc(-c3ccccc3)oc2C)C(=O)OC(C)(C)C)cc1`, the melting point was 85 to 86 °C.
Work on `CC1(C)Oc2ccc(C#N)cc2[C@@H](n2cnccc2=O)[C@@H]1O` (relative stereo) yielded a melting point of 202 to 203 °C.
In the case of `O=C1C=c2c(c3c4ccccc4oc3c3[nH]c4ccccc4c23)=N1`, the melting point is reported as over 300 °C.
With `CSc1nc(-c2ccc(F)cc2)c(-c2ccnc(OC(C)C)c2)[nH]1` the melting point was 141 °C.
`C#CCNC(=O)C(C#N)=C1CC(C)(C)c2cc(OC)c(OC)cc21` gave a melting point of 202 to 205 °C.
